Test results taken from PMC11678426, “Phytochemical Study and In Vitro Antioxidant Activity of Helianthemum cinereum Along with Antitumor Activity of the Isolated trans-Tiliroside and Luteolin 4′-O-β-Xyloside” (Molecules, 2024).
“And” between values parts separate entries of the source, which are not always exact repeats. Identical values can stand only once.

Key:
[1] = system: A375 melanoma cell line; assay: Cell viability by MTT assay, A375; format: cell-based; details: for concentrations giving significant decrease in cell viability: 72 h
Method: (§1) The immortalized human keratinocytes HaCaT cells were obtained from Cell Lines Services (Eppelheim, Germany). The A549 cell lines were acquired from the European Collection of Authenticated Cell Cultures (ECACC) and supplied by Sigma-Aldrich (St. Louis, MO, USA), the A375 cell lines were acquired from ATCC and supplied by LGC Standards (Barcelona, Spain), and Mia PaCa-2 and Panc-1 cell lines were kindly provided by Dr. Sónia Melo […], Porto, Portugal). […] Cells were cultured at 5% CO2 and at 37 °C. A stock solution was made by dissolving trans-tiliroside or luteolin 4'-O-β-xyloside in dimethyl sulfoxide (DMSO, Sigma-Aldrich, St. Louis, MO, USA). All cell lines were seeded in 96-well plates at a density of 12,500 cells/mL and incubated for 24 h for adhesion. […] After the exposure, cell viability was assessed by 3-(4,5-dimethyl-2-thiazolyl)-2,5-diphenyl-2H-tetrazolium bromide (MTT, Sigma-Aldrich, St. Louis, MO, USA) assay. Briefly, the exposure medium was replaced by fresh medium and 50 μL of MTT (1.0 mg/mL dissolved in phosphate-buffered saline, PBS, PAN-Biotech, Aidenbach, Germany) and plates were incubated for 3 h. Then, the medium was removed and 150 μL of DMSO was added and plates were shaken in the dark for 1 h. The absorbance was read in a microplate reader BioTek Synergy HT plate reader at 570 nm. Cells with only medium without compounds were used as control. Three independent assays were completed with three replicates each. Cell viability was further calculated using the Equation (3):(3) Cell Viability % of control=Sample Absorbance-Blank Absorbance/Control Absorbance-Blank Absorbance×100

[2] = system: HaCaT cells; assay: Cell cycle analysis by flow cytometry, HaCaT; format: cell-based, human; details: IC50 concentration (122 μM), 72 h
Method: (§2) Cells were seeded in 12-well plates as described before. […] Then, cells were collected, washed with PBS, fixed with 85% ethanol and stored at −20 °C until analysis. For analysis, cells were washed, resuspended in PBS and filtered to Eppendorf tubes. Samples were incubated with 50 μL of RNAse (Sigma-Aldrich, St. Louis, MO, USA) for 10 min and next with 50 μL of propidium iodide (PI, ≥94%; Sigma-Aldrich, St. Louis, MO, USA) for 20 min. Cells were analyzed with an Attune® Acoustic Focusing Cytometer (Applied Biosystems, Termo Fischer Scientific, Agawam, MA, USA) and the percentages of cells at each phase of the cell cycle were determined using the FlowJo software V10.7.1 (FlowJo LLC, Ashland, OR, USA). Two independent assays with two replicates each were performed, with at least 5000 events.

[3] = system: Mia PaCa-2 cells; assay: Cell cycle analysis by flow cytometry, Mia PaCa-2; format: cell-based; details: Mia PaCa-2, IC50 concentration (46.2 μM), 72 h
Method: as §2

[4] = system: Mia PaCa-2 pancreatic cancer cell line; assay: Cell viability by MTT assay, Mia PaCa-2; format: cell-based; details: Mia PaCa-2, MTT; for IC50: Homo sapiens, 72 h exposure
Method: as §1

[5] = system: Panc-1 pancreatic cancer cell line; assay: Cell viability by MTT assay, Panc-1; format: cell-based; details: Panc-1, MTT
Method: as §1, with “Then, the medium was removed and 150 μL of DMSO was added and plates were shaken in the dark for 1 h.” left out, “Cells with only medium without compounds were used as control. Three independent assays were completed with three replicates each.” left out

[6] = system: Panc-1 cells; assay: Cell cycle analysis by flow cytometry, Panc-1; format: cell-based; details: Panc-1, IC50 concentration (54 μM), 72 h
Method: as §2

[7] = system: B16-F10 cells, melanoma cell line; set-up: method as in earlier work; details: 168 μM, 72 h; ref 41 (Lu et al. 2009); cited from earlier work
[8] = system: A549 cells; assay: Cell cycle analysis by flow cytometry, A549; format: cell-based; details: A549, IC50 concentration (108 μM), 72 h
Method: as §2

[9] = system: Panc-1 cells; set-up: method as in PMID 38412575; details: 72 h of exposure; read-out: IC50 growth of Panc-1 cells; cited from earlier work
[10] = system: immortalized human keratinocytes HaCaT; assay: Cell viability by MTT assay, HaCaT; format: cell-based; details: 72 h exposure
Method: as §1, with “Then, the medium was removed and 150 μL of DMSO was added and plates were shaken in the dark for 1 h.” left out, “Cells with only medium without compounds were used as control. Three independent assays were completed with three replicates each.” left out

[11] = system: A549 lung cancer cell line; assay: Cell viability by MTT assay, A549; format: cell-based
Method: as §1, with “Then, the medium was removed and 150 μL of DMSO was added and plates were shaken in the dark for 1 h.” left out, “Cells with only medium without compounds were used as control. Three independent assays were completed with three replicates each.” left out

[12] = system: A375 cells; assay: Cell cycle analysis by flow cytometry, A375; format: cell-based; details: A375, IC50 concentration (102 μM), 72 h
Method: as §2

[13] = DPPH radical scavenging capacity
Method: Different concentrations of H. cinereum extract were prepared in methanol and aliquots of 100 μL were added to 3.5 mL of DPPH (Sigma-Aldrich, Steinheim, Germany) solution (30 μg/g in methanol). A blank consisting of DPPH solution without extract was prepared. All samples were kept in darkness for 15 min. Then, the absorbance was measured against a blank (Methanol) at 515 nm in a UV-Vis spectrophotometer (UV 1700, Shimadzu, Japan). The DPPH solution was daily prepared and the concentration was checked using a calibration curve obtained by preparation of serial concentrations (4, 8, 16, 32 and 64 μg/g). […] The obtained IC50 value is inversely proportional to the antioxidant activity.

[14] = system: pancreatic cancer cell lines; set-up: method as in PMID 26527884; details: cited from earlier work
[15] = system: A549 cell line; set-up: method as in PMID 20589534, PMID 29393891; details: cited from earlier work
[16] = system: IL-5; set-up: method as in PMID 10418337; details: from Kummerowia striata; cited from earlier work
[17] = set-up: method as in doi:10.3390/app7040400; details: cited from earlier work
[18] = ABTS radical scavenging assay
Method: The ABTS radical scavenging activity of H. cinereum extracts was assessed according to the method described by. Firstly, 1 mL of ABTS (Sigma-Aldrich, Steinheim, Germany) stock solution (7 mM) was mixed with 88 μL of potassium persulfate solution (140 mM) and kept overnight protected from light and at room temperature. Next, the mixture was diluted with potassium buffer saline (0.2 M, pH 7.4) to obtain an ABTS solution with an absorbance of 0.70 ± 0.02 at 734 nm. […] The reaction took place in the dark for 6 min, and the absorbance at 734 nm was measured. Samples containing the same volume of methanol and the same dilution of ascorbic acid served as white and positive controls, respectively. […] A2 is the solvent and sample mixture absorbance and A0 is the absorbance of the solvent and ABTS radical mixture.

O=C(/C=C/c1ccc(O)cc1)OC[C@H]1O[C@@H](Oc2c(-c3ccc(O)cc3)oc3cc(O)cc(O)c3c2=O)[C@H](O)[C@@H](O)[C@@H]1O [trans-tiliroside, kaempferol-3-O-[6″-O-(E)-p-coumaroyl]-β-D-glucoside]
concentrations giving significant decrease in cell viability [1]: ≥ 75 µM
IC50 ([1]; Homo sapiens, A-375, 72 h exposure): 102 ± 2.56 µM
effect on cell cycle dynamics [2]: no alterations on the cell cycle dynamics
increase of cells at G2/M phase compared to the control [3]: 3.9%
increase of cells at the S phase compared to the control [3]: 5.6%
IC50 [4]: 46.2 ± 0.89 µM
concentrations affecting cell viability ([4]; 72 h): ≥ 50 µM
IC50 ([5]; Homo sapiens, 72 h exposure): 54 ± 1.95 µM
concentration causing decline of cell viability ([5]; 72 h): 10 µM
effect on cell cycle dynamics [6]: no alterations on the cell cycle dynamics
decline in the viability of B16-F10 cells [7]: 80%
effect on cell cycle dynamics [8]: no alterations on the cell cycle dynamics
IC50 [9]: 68.5 µM
IC50 [10]: 122 ± 1.8 µM
concentrations giving significant decrease in cell viability ([11]; 72 h): ≥ 75 µM
IC50 ([11]; Homo sapiens, 72 h exposure): 108 ± 2.8 µM
effect on cell cycle dynamics [12]: no alterations on the cell cycle dynamics

O=c1cc(-c2ccc(OC3OCC(O)C(O)C3O)c(O)c2)oc2cc(O)cc(O)c12 (stereo not drawn) [Luteolin 4′-O-β-xyloside, luteolin 4′-O-β-xyloside]
concentrations giving significant decrease in cell viability [1]: up to 75 μM
IC50 [4]: 229 ± 9.09 µM

O=C1O[C@H]([C@@H](O)CO)C(O)=C1O [Ascorbic acid]
DPPH (IC50) [13]: 3.36 ± 0.13 µg/g

O=c1cc(-c2ccc(O)c(O)c2)oc2cc(O)cc(O)c12 [luteolin aglycone, luteolin]
concentrations strongly affecting pancreatic cancer cell lines [14]: above 160 μM
IC50 [15]: 32.6 µM and 40 µM

O=c1cc(-c2ccc(OC3OC(CO)C(O)C(O)C3O)c(O)c2)oc2cc(O)cc(O)c12 (stereo not drawn) [Luteolin 4′-O-glucoside, luteolin 4′-O-β-glucoside]
IL-5 inhibition [16]: IL-5 inhibitor

COc1cc2c(=O)oc3c(OC)c(OS(=O)(=O)O)cc4c(=O)oc(c1OC)c2c34 [Compound 12, 3,3′,4′-tri-O-methyl-ellagic acid 4-sulfate]
cytotoxic effect [17]: cytotoxic effect

Cc1c(C)c2c(c(C)c1O)CCC(C)(C(=O)O)O2 (centres unmarked) [Trolox]
ABTS (IC50) [18]: 23.2 ± 0.54 mg/L
DPPH (IC50) [13]: 12 ± 0.41 mg/L
